Source: PubChem BioAssay AID1259407 (Chemical Carcinogenesis Research Information System (CCRIS), 2018)
Calls of active or inactive are those of the source. No rule for the calls is given here.

Test system: CCRIS mutagenicity, Ames/micronucleus/aberration tests
Test: CCRIS mutagenicity studies
[1] = Test System: AMES SALMONELLA TYPHIMURIUM, Strain/Indicator: TA98, Metabolic Activation: NONE, Method: PREINCUBATION
[2] = Test System: AMES SALMONELLA TYPHIMURIUM, Strain/Indicator: TA100, Metabolic Activation: NONE, Method: PREINCUBATION
[3] = Test System: AMES SALMONELLA TYPHIMURIUM, Strain/Indicator: TA1537, Metabolic Activation: NONE, Method: PREINCUBATION

Cc1cccc(O)c1
mutagenic call (End Point: IN VITRO CHROMOSOMAL ABERRATIONS, Test System: SYRIAN HAMSTER EMBRYO (SHE) CELLS, Metabolic Activation: NONE): active; positive (structural changes) | mutagenic call (End Point: IN VITRO CHROMOSOMAL ABERRATIONS, Test System: SYRIAN HAMSTER EMBRYO (SHE) CELLS, Metabolic Activation: RAT, LIVER, S-9): active; positive (structural changes) | mutagenic call [1]: inactive; negative | mutagenic call (Test System: AMES SALMONELLA TYPHIMURIUM, Strain/Indicator: TA98, Metabolic Activation: RAT, LIVER, S-9, SODIUM PHENOBARBITAL AND 5,6-BENZOFLAVONE, Method: PREINCUBATION): inactive; negative | mutagenic call [2]: inactive; negative | mutagenic call (Test System: AMES SALMONELLA TYPHIMURIUM, Strain/Indicator: TA100, Metabolic Activation: RAT, LIVER, S-9, SODIUM PHENOBARBITAL AND 5,6-BENZOFLAVONE, Method: PREINCUBATION): inactive; negative | mutagenic call (Test System: AMES SALMONELLA TYPHIMURIUM, Strain/Indicator: TA102, Metabolic Activation: NONE, Method: PREINCUBATION): inactive; negative | mutagenic call (Test System: AMES SALMONELLA TYPHIMURIUM, Strain/Indicator: TA102, Metabolic Activation: RAT, LIVER, S-9, SODIUM PHENOBARBITAL AND 5,6-BENZOFLAVONE, Method: PREINCUBATION): inactive; negative | mutagenic call (Test System: AMES SALMONELLA TYPHIMURIUM, Strain/Indicator: TA104, Metabolic Activation: NONE, Method: PREINCUBATION): inactive; negative | mutagenic call (Test System: AMES SALMONELLA TYPHIMURIUM, Strain/Indicator: TA104, Metabolic Activation: RAT, LIVER, S-9, SODIUM PHENOBARBITAL AND 5,6-BENZOFLAVONE, Method: PREINCUBATION): inactive; negative | mutagenic call (Test System: AMES SALMONELLA TYPHIMURIUM, Strain/Indicator: TA1535, Metabolic Activation: NONE, Method: PREINCUBATION): inactive; negative | mutagenic call (Test System: AMES SALMONELLA TYPHIMURIUM, Strain/Indicator: TA1535, Metabolic Activation: RAT, LIVER, S-9, SODIUM PHENOBARBITAL AND 5,6-BENZOFLAVONE, Method: PREINCUBATION): inactive; negative | mutagenic call [3]: inactive; negative | mutagenic call (Test System: AMES SALMONELLA TYPHIMURIUM, Strain/Indicator: TA1537, Metabolic Activation: RAT, LIVER, S-9, SODIUM PHENOBARBITAL AND 5,6-BENZOFLAVONE, Method: PREINCUBATION): inactive; negative | mutagenic call (Test System: Ames Salmonella typhimurium, Strain/Indicator: TA98, Metabolic Activation: Hamster, Liver, S-9, Aroclor 1254 (10%), Method: Preincubation): inactive; negative | mutagenic call (Test System: Ames Salmonella typhimurium, Strain/Indicator: TA98, Metabolic Activation: None, Method: Preincubation): inactive; negative | mutagenic call (Test System: Ames Salmonella typhimurium, Strain/Indicator: TA98, Metabolic Activation: Rat, Liver, S-9, Aroclor 1254 (10%), Method: Preincubation): inactive; negative | mutagenic call (Test System: Ames Salmonella typhimurium, Strain/Indicator: TA100, Metabolic Activation: Hamster, Liver, S-9, Aroclor 1254 (10%), Method: Preincubation): inactive; negative | mutagenic call (Test System: Ames Salmonella typhimurium, Strain/Indicator: TA100, Metabolic Activation: None, Method: Preincubation): inactive; negative | mutagenic call (Test System: Ames Salmonella typhimurium, Strain/Indicator: TA100, Metabolic Activation: Rat, Liver, S-9, Aroclor 1254 (10%), Method: Preincubation): inactive; negative | mutagenic call (Test System: Ames Salmonella typhimurium, Strain/Indicator: TA1535, Metabolic Activation: Hamster, Liver, S-9, Aroclor 1254 (10%), Method: Preincubation): inactive; negative | mutagenic call (Test System: Ames Salmonella typhimurium, Strain/Indicator: TA1535, Metabolic Activation: None, Method: Preincubation): inactive; negative | mutagenic call (Test System: Ames Salmonella typhimurium, Strain/Indicator: TA1535, Metabolic Activation: Rat, Liver, S-9, Aroclor 1254 (10%), Method: Preincubation): inactive; negative | mutagenic call (Test System: Ames Salmonella typhimurium, Strain/Indicator: TA1537, Metabolic Activation: Hamster, Liver, S-9, Aroclor 1254 (10%), Method: Preincubation): inactive; negative | mutagenic call (Test System: Ames Salmonella typhimurium, Strain/Indicator: TA1537, Metabolic Activation: None, Method: Preincubation): inactive; negative | mutagenic call (Test System: Ames Salmonella typhimurium, Strain/Indicator: TA1537, Metabolic Activation: Rat, Liver, S-9, Aroclor 1254 (10%), Method: Preincubation): inactive; negative | mutagenic call (Test System: E. COLI, Strain/Indicator: WP2UVRA/PKM101, Metabolic Activation: NONE, Method: PREINCUBATION): inactive; negative | mutagenic call (Test System: E. COLI, Strain/Indicator: WP2UVRA/PKM101, Metabolic Activation: RAT, LIVER, S-9, PHENOBARBITAL AND BETA-NAPHTHOFLAVONE, Method: PREINCUBATION): inactive; negative | mutagenic call (Test System: E. COLI, Strain/Indicator: WP2UVRA, Metabolic Activation: NONE, Method: PREINCUBATION): inactive; negative | mutagenic call (Test System: E. COLI, Strain/Indicator: WP2UVRA, Metabolic Activation: RAT, LIVER, S-9, PHENOBARBITAL AND BETA-NAPHTHOFLAVONE, Method: PREINCUBATION): inactive; negative

O=C1c2ccccc2C(=O)c2c(O)c(O)cc(O)c21
mutagenic call [1]: inactive; negative | mutagenic call (Test System: AMES SALMONELLA TYPHIMURIUM, Strain/Indicator: TA98, Metabolic Activation: RAT, LIVER, S-9, AROCLOR 1254, Method: STANDARD PLATE): inactive; negative | mutagenic call (Test System: AMES SALMONELLA TYPHIMURIUM, Strain/Indicator: TA98, Metabolic Activation: RAT, LIVER, S-9, PCB, Method: PREINCUBATION): inactive; negative | mutagenic call [2]: inactive; negative | mutagenic call (Test System: AMES SALMONELLA TYPHIMURIUM, Strain/Indicator: TA100, Metabolic Activation: RAT, LIVER, S-9, AROCLOR 1254, Method: STANDARD PLATE): inactive; negative | mutagenic call (Test System: AMES SALMONELLA TYPHIMURIUM, Strain/Indicator: TA100, Metabolic Activation: RAT, LIVER, S-9, PCB, Method: PREINCUBATION): inactive; negative | mutagenic call (Test System: AMES SALMONELLA TYPHIMURIUM, Strain/Indicator: TA1535, Metabolic Activation: NONE, Method: STANDARD PLATE): inactive; negative | mutagenic call (Test System: AMES SALMONELLA TYPHIMURIUM, Strain/Indicator: TA1535, Metabolic Activation: RAT, LIVER, S-9, AROCLOR 1254, Method: STANDARD PLATE): inactive; negative | mutagenic call [3]: active; positive | mutagenic call (Test System: AMES SALMONELLA TYPHIMURIUM, Strain/Indicator: TA1537, Metabolic Activation: NONE, Method: STANDARD PLATE): active; positive | mutagenic call (Test System: AMES SALMONELLA TYPHIMURIUM, Strain/Indicator: TA1537, Metabolic Activation: RAT, LIVER, S-9, AROCLOR 1254, Method: STANDARD PLATE): active; positive | mutagenic call (Test System: AMES SALMONELLA TYPHIMURIUM, Strain/Indicator: TA1537, Metabolic Activation: RAT, LIVER, S-9, Method: PREINCUBATION): active; positive | mutagenic call (Test System: CHINESE HAMSTER V-79, Strain/Indicator: V-79/8-AZAGUANINE, Metabolic Activation: NONE, Method: STANDARD PLATE): active; positive | mutagenic call (Test System: UDS RODENT HEPATOCYTES, Strain/Indicator: THY INCORP (NON-S-PHASE), Method: AUTORADIOGRAPHY): active; positive

CCC(C)(C)c1cc(-n2nc3ccccc3n2)c(O)c(C(C)(C)CC)c1
mutagenic call (Test System: AMES SALMONELLA TYPHIMURIUM, Strain/Indicator: TA97, Metabolic Activation: NONE, Method: STANDARD PLATE): inactive; negative | mutagenic call (Test System: AMES SALMONELLA TYPHIMURIUM, Strain/Indicator: TA97, Metabolic Activation: S-9, Method: STANDARD PLATE): inactive; negative | mutagenic call (Test System: AMES SALMONELLA TYPHIMURIUM, Strain/Indicator: TA98, Metabolic Activation: NONE, Method: STANDARD PLATE): inactive; negative | mutagenic call (Test System: AMES SALMONELLA TYPHIMURIUM, Strain/Indicator: TA98, Metabolic Activation: S-9, Method: STANDARD PLATE): inactive; negative | mutagenic call (Test System: AMES SALMONELLA TYPHIMURIUM, Strain/Indicator: TA100, Metabolic Activation: NONE, Method: STANDARD PLATE): inactive; negative | mutagenic call (Test System: AMES SALMONELLA TYPHIMURIUM, Strain/Indicator: TA100, Metabolic Activation: S-9, Method: STANDARD PLATE): inactive; negative | mutagenic call (Test System: AMES SALMONELLA TYPHIMURIUM, Strain/Indicator: TA102, Metabolic Activation: NONE, Method: STANDARD PLATE): inactive; negative | mutagenic call (Test System: AMES SALMONELLA TYPHIMURIUM, Strain/Indicator: TA102, Metabolic Activation: S-9, Method: STANDARD PLATE): inactive; negative | mutagenic call (Test System: E.COLI, Strain/Indicator: WP2 (PKM101), Metabolic Activation: NONE, Method: STANDARD PLATE): inactive; negative | mutagenic call (Test System: E.COLI, Strain/Indicator: WP2 (PKM101), Metabolic Activation: S-9, Method: STANDARD PLATE): inactive; negative

O=S(=O)(O)Oc1ccc2cc3ccc4cccc5ccc(c2c1)c3c45
mutagenic call [1]: inactive; negative | mutagenic call (Test System: AMES SALMONELLA TYPHIMURIUM, Strain/Indicator: TA98, Metabolic Activation: RAT, LUNG, S-9, Method: PREINCUBATION): inactive; negative
